Source: patent US11744799B2, “Topical composition” (MC2 Therapeutics Limited, priority 2017, dated 2023)
“And” between values parts separate entries of the source, which are not always exact repeats. Identical values can stand only once.

Assay: Stability of 1% crisaborole solution in 50% ethanol/citrate buffer at various pH
Type: physicochemical
Conditions: for % peak purity: 1% solution, 50% ethanol, 40° C. for one month
Description: The sample was stored in a closed, airtight glass container with headspace comprising no more than 5% by volume of the total usable volume of the container. Each container containing a sample was stored at a constant temperature of 40° C. in a standard laboratory incubator (for example, Memmert IF260PLUS Incubator). The storage period for each sample was […]. The chemical stability of the crisaborole in each sample after the storage period was measured by a HPLC method. The HPLC method was as follows: A 1% solution of crisaborole was prepared with 50% ethanol and a citrate buffer to pH 5.5. The system was then stored at 40° C. for one month under the conditions of Example 3 and gave an 84% peak purity. Equivalent solutions were prepared and tested at pH 4.5, 6.5, 7.5 and 8.5.

**Q.** For `N#Cc1ccc(Oc2ccc3c(c2)COB3O)cc1` [crisaborole], which “pH at which chemical stability is highest” value (aqueous medium, pH 4.5 to 8.5 tested) is on record?
**A.** The value was 5.5.

**Q.** What about the “% peak purity” value (pH 4.5) of the same molecule?
**A.** The value was 79.5%.

**Q.** What about the “% peak purity” value (pH 5.5, citrate buffer) of the same molecule?
**A.** The value was 84% and 84.1%.

**Q.** What about the “% peak purity” value (pH 6.5) of the same molecule?
**A.** The value was 79.8%.

**Q.** What about the “% peak purity” value (pH 7.5) of the same molecule?
**A.** Its value is 72.1%.

**Q.** What about the “% peak purity” value (pH 8.5) of the same molecule?
**A.** The value was 51.3%.
